Measured values from patent US4226610A, “Herbicidal compounds, preparation thereof and herbicides containing the same” (Meiji Selka Kaisha, Ltd., priority 1978, dated 1980).

Tests used:
manna grass = assay: Experiment 1 foliar application to naturally growing weeds; assay type: in vivo, Digitaria adsceudes Henr.; details: for Reproduction-inhibiting effect: 2 months
In short: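 Dilute compounds to prescribed concentrations; add 0.1% octylphenyl polyoxyethanol; spray foliage of in-situ weeds at 150 liter per 10 are. Score killing 0–5 on day 21. Score reproduction (-) to (+++) at month 2 (cockspar grass) or month 4 (chigaya, azumanezasa, warunasubi).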

yabugarashi = assay: as above; assay type: in vivo, Cayratia japonica Houtt.; details: for Reproduction-inhibiting effect: 4 months
In short: (§1)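 Read-outs were a 0–5 killing index at 21 days and a reproduction score from (-), no reproduction, to (+++), no suppression. Reproduction was read at 2 months for cockspar grass and 4 months for the other species, after foliar spraying at 150 liter per 10 are with 0.1% surfactant.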

purple nutsedge = assay: as above; assay type: in vivo, Cyperus rotundus L.; details: 4 months
In short: as §1

warunasubi = assay: as above; assay type: in vivo, Solanum carolinensis L.; details: for Reproduction-inhibiting effect: 4 months; for Killing index of Upperground parts: 21 days
In short: as §1

hedge bindweed = assay: as above; assay type: in vivo, Calystegis hederacea Wall.; details: 4 months
In short: as §1

chigaya = assay: as above; assay type: in vivo, Imperata cylindrica Beauv.; details: for Reproduction-inhibiting effect: 4 months
In short: as §1

miyakozasa = assay: Experiment 2 foliar application in Japanese cypress afforested land; assay type: in vivo, Sasa nipponica Makino et Shibata; details: 0.125%; after 3 months
Protocol: (§2) The detail of the assessment made in the following Experiments of the invention was as follows:
The compounds of the invention and other compounds listed in Table 4. were diluted to prescribed concentrations and sprayed to shrubs by foliar application in a Japanese cypress afforested land in an amount of 150 liter per 10 are.
After 30 days and 3 months, the killing index (0, no effect; 5, death) was determined.
The heights of plants were 50-70 cm. for Japanese cypress, about 50 cm. for chestnut, 50-90 cm. for miyakozasa, about 100 cm. for eulalia and 70-100 cm. for kumaichigo, respectively.

kiichigo = assay: Experiment 3 foliar application to naturally growing shrubs; assay type: in vivo, Rubus palmatsu Thunb. forma coptophyllus Makino
In short: (§3)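 Sprays contained 0.1% octylphenyl polyoxyethanol and compound diluted to prescribed concentrations. They were applied to the leaves of wild shrubs at a rate of 150 liter per 10 are. Damage was rated 0–5 after one and three months, and regrowth − to +++ after three months.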

Japanese prickly ash = assay: as above; assay type: in vivo, Xanthoxylum piperitum DC.
In short: as §3

lace shrub = assay: as above; assay type: in vivo, Stephanandra incisa Zabel
In short: as §3

water hyacinth [1] = assay: Experiment 5 foliar application to water hyacinths; assay type: in vivo, Eichhornia crassipes Solms; details: 3 months
In short: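 Two plants floated in fertilized water per vessel, sprayed foliarly with 0.1 or 0.2% aqueous compound solutions at 100 liter per 10 are plus 0.1% octylphenyl polyoxyethanol. Killing index (0 no effect to 5 death) scored at 21 days and 3 months; reproduction inhibition scored (-) to (+++) at 3 months.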

urikawa = assay: Experiment 6 spray on aquatic plants in concrete pots; assay type: in vivo, Sagittaria pygmaea Miguel; details: 3 months
Source text: as §2
(§4) Four months after treatment, evaluation was made for inhibition of reproduction expressed in terms of symbols ranging from (-) to (+++) where (-) means no reproduction, namely complete suppression of reproduction, (±) remarkable suppression of reproduction; (+) considerable suppression of reproduction; (++) medium supprestion of reproduction; and (+++) no suppression of reproduction.
(§5) A paddy field soil was packed in 50 cm. square concrete pots. omodaka (Sagittaria trifolia L.), urikawa (Sagittaria pygmaea Miq.), prog-bit (Hydrocharis dubia) and aginashi (Sagittaria Aginashi Makino) were transplanted; then water was poured onto the soil at 5 cm. depth.
(§6) Further, water hyacinth, greater-duckweed (Spirodela polyrhiza Schleid.) and duckweed (Lemna paucicostata Hegelm) were floated on the water.
(§7) After one month, the compounds of the invention diluted to the prescribed concentrations as indicated in Table 8 were sprayed in an amount of 100 liter per 10 are. As a surfactant, 0.1% of octylphenyl polyoxyethanol was added thereto.
(§8) The killing index (0, no effect; 5, death) after 21 days and 3 months and the reproduction-inhibiting effect (-, no reproduction; +++, maximum reproduction) after 3 months were determined.

water hyacinth [2] = assay: as above; assay type: in vivo, Eichhornia crassipes Solms; details: for Reproduction-inhibiting effect: 3 months
Source text: as §2, §4, §5, §6, §7, §8

hornwort = assay: Experiment 7 application to water; assay type: in vivo, Ceratophyllum demersum L.; parameters: scale not given here
Source text: A black soil was packed in 50 cm. square concrete pots and water was poured there-onto at 50 cm. in depth. Hornwort (Ceratophyllum demersum L.), stonewort (Chara Braunii Gmel.) and salvinia (Salvinia natans All.) were transplanted and pond scum (Spirogira crassa Kutz) and diatoms (Bacillariophyta) were floated in the water.
Then, the compounds of the invention were applied dropwise onto the surface of the water so that the prescribed concentrations in the water are obtained as indicated in Table 9.

Solubility (Table 1) = details: ethanol, organic solvent or mixture

C[C@H](NC(=O)[C@H](C)NC(=O)[C@@H](N)CCP(C)(=O)O)C(=O)O [SF-1293 choline, (L-2-Amino-4-methylphosphinobutyryl)-L-alanyl-L-alanine choline]
+: Reproduction-inhibiting effect (manna grass; 0.05%) | Reproduction-inhibiting effect (purple nutsedge; 0.1%) | Reproduction-inhibiting effect (hedge bindweed; 0.05%) | Reproduction-inhibiting effect (chigaya; 0.05%)
++: Reproduction-inhibiting effect (yabugarashi; 0.05%) | Reproduction-inhibiting effect (purple nutsedge; 0.05%) | Reproduction-inhibiting effect (warunasubi; 0.05%) | Reproduction-inhibiting (kiichigo; 0.05%, after 3 months) | Reproduction-inhibiting (Japanese prickly ash; 0.05%, after 3 months) | Reproduction-inhibiting (lace shrub; 0.05%, after 3 months) | Reproduction-inhibiting effect (urikawa; 0.05%) | Reproduction-inhibiting effect (water hyacinth [2]; 0.05%)
2: controlling effect (hornwort; 1 ppm, 21 days)
5: controlling effect (hornwort; 3 ppm, 3 months) | controlling effect (hornwort; 10 ppm, 3 months) | controlling effect (hornwort; 10 ppm, 21 days)
4.5: Killing index of Upperground parts (manna grass; 0.1%, 21 days) | Killing index (miyakozasa) | Killing index (Japanese prickly ash; 0.1%, after 3 months) | Killing index (water hyacinth [2]; 0.1%, 21 days)
±: Reproduction-inhibiting effect (manna grass; 0.1%) | Reproduction-inhibiting effect (yabugarashi; 0.1%) | Reproduction-inhibiting effect (purple nutsedge; 0.2%) | Reproduction-inhibiting effect (warunasubi; 0.1%) | Reproduction-inhibiting effect (hedge bindweed; 0.1%) | Reproduction-inhibiting (Japanese prickly ash; 0.1%, after 3 months) | Reproduction-inhibiting effect (water hyacinth [1]; 0.1%) | Reproduction-inhibiting effect (urikawa; 0.1%)
1: controlling effect (hornwort; 1 ppm, 3 months)
3.5: Killing index of Upperground parts (yabugarashi; 0.05%, 21 days) | Killing index of Upperground parts (warunasubi; 0.05%)
310 mg/mL: solubility (Solubility (Table 1))
4: controlling effect (hornwort; 3 ppm, 21 days)
-: Reproduction-inhibiting effect (manna grass; 0.2%) | Reproduction-inhibiting effect (yabugarashi; 0.2%) | Reproduction-inhibiting effect (warunasubi; 0.2%) | Reproduction-inhibiting effect (hedge bindweed; 0.2%) | Reproduction-inhibiting effect (chigaya; 0.1%) | Reproduction-inhibiting effect (chigaya; 0.2%) | Reproduction-inhibiting (kiichigo; 0.1%, after 3 months) | Reproduction-inhibiting (kiichigo; 0.2%, after 3 months) | Reproduction-inhibiting (Japanese prickly ash; 0.2%, after 3 months) | Reproduction-inhibiting (lace shrub; 0.1%, after 3 months) | Reproduction-inhibiting (lace shrub; 0.2%, after 3 months) | Reproduction-inhibiting effect (water hyacinth [1]; 0.2%) | Reproduction-inhibiting effect (urikawa; 0.2%) | Reproduction-inhibiting effect (water hyacinth [2]; 0.1%) | Reproduction-inhibiting effect (water hyacinth [2]; 0.2%)

CP(=O)(O)CC[C@H](N)C(=O)O [L-AMPB choline, L-2-Amino-4-methylphosphino-butanoic acid choline]
-: Reproduction-inhibiting effect (manna grass; 0.1%) | Reproduction-inhibiting effect (manna grass; 0.2%) | Reproduction-inhibiting effect (yabugarashi; 0.1%) | Reproduction-inhibiting effect (yabugarashi; 0.2%) | Reproduction-inhibiting effect (purple nutsedge; 0.2%) | Reproduction-inhibiting effect (warunasubi; 0.1%) | Reproduction-inhibiting effect (warunasubi; 0.2%) | Reproduction-inhibiting effect (hedge bindweed; 0.1%) | Reproduction-inhibiting effect (hedge bindweed; 0.2%) | Reproduction-inhibiting effect (chigaya; 0.05%) | Reproduction-inhibiting effect (chigaya; 0.1%) | Reproduction-inhibiting effect (chigaya; 0.2%) | Reproduction-inhibiting (kiichigo; 0.05%, after 3 months) | Reproduction-inhibiting (kiichigo; 0.1%, after 3 months) | Reproduction-inhibiting (kiichigo; 0.2%, after 3 months) | Reproduction-inhibiting (Japanese prickly ash; 0.1%, after 3 months) | Reproduction-inhibiting (Japanese prickly ash; 0.2%, after 3 months) | Reproduction-inhibiting (lace shrub; 0.1%, after 3 months) | Reproduction-inhibiting (lace shrub; 0.2%, after 3 months) | Reproduction-inhibiting effect (water hyacinth [1]; 0.1%) | Reproduction-inhibiting effect (water hyacinth [1]; 0.2%) | Reproduction-inhibiting effect (urikawa; 0.1%) | Reproduction-inhibiting effect (urikawa; 0.2%) | Reproduction-inhibiting effect (water hyacinth [2]; 0.1%) | Reproduction-inhibiting effect (water hyacinth [2]; 0.2%)
3: controlling effect (hornwort; 1 ppm, 21 days)
++: Reproduction-inhibiting effect (water hyacinth [2]; 0.05%)
+: Reproduction-inhibiting effect (purple nutsedge; 0.05%) | Reproduction-inhibiting effect (urikawa; 0.05%)
4.5: Killing index (kiichigo; 0.05%, after 30 days) | Killing index (Japanese prickly ash; 0.05%, after 3 months) | Killing index (Japanese prickly ash; 0.05%, after 30 days) | Killing index (lace shrub; 0.05%, after 3 months) | Killing index (lace shrub; 0.05%, after 30 days)
5: controlling effect (hornwort; 3 ppm, 3 months) | controlling effect (hornwort; 3 ppm, 21 days) | controlling effect (hornwort; 10 ppm, 3 months) | controlling effect (hornwort; 10 ppm, 21 days)
±: Reproduction-inhibiting effect (manna grass; 0.05%) | Reproduction-inhibiting effect (yabugarashi; 0.05%) | Reproduction-inhibiting effect (purple nutsedge; 0.1%) | Reproduction-inhibiting effect (warunasubi; 0.05%) | Reproduction-inhibiting effect (hedge bindweed; 0.05%) | Reproduction-inhibiting (Japanese prickly ash; 0.05%, after 3 months) | Reproduction-inhibiting (lace shrub; 0.05%, after 3 months)
2: controlling effect (hornwort; 1 ppm, 3 months)

CP(=O)(O)CCC(N)C(=O)O (racemic) [DL-AMPB choline]
+: Reproduction-inhibiting effect (purple nutsedge; 0.1%) | Reproduction-inhibiting (kiichigo; 0.05%, after 3 months) | Reproduction-inhibiting (Japanese prickly ash; 0.1%, after 3 months) | Reproduction-inhibiting effect (water hyacinth [1]; 0.1%) | Reproduction-inhibiting effect (urikawa; 0.1%)
++: Reproduction-inhibiting effect (manna grass; 0.05%) | Reproduction-inhibiting effect (yabugarashi; 0.05%) | Reproduction-inhibiting effect (purple nutsedge; 0.05%) | Reproduction-inhibiting effect (warunasubi; 0.05%) | Reproduction-inhibiting effect (hedge bindweed; 0.05%) | Reproduction-inhibiting effect (chigaya; 0.05%) | Reproduction-inhibiting (Japanese prickly ash; 0.05%, after 3 months) | Reproduction-inhibiting (lace shrub; 0.05%, after 3 months) | Reproduction-inhibiting effect (urikawa; 0.05%) | Reproduction-inhibiting effect (water hyacinth [2]; 0.1%)
±: Reproduction-inhibiting effect (manna grass; 0.1%) | Reproduction-inhibiting effect (yabugarashi; 0.1%) | Reproduction-inhibiting effect (purple nutsedge; 0.2%) | Reproduction-inhibiting effect (warunasubi; 0.1%) | Reproduction-inhibiting effect (hedge bindweed; 0.1%) | Reproduction-inhibiting (kiichigo; 0.1%, after 3 months)
4.5: Killing index of Upperground parts (warunasubi; 0.1%) | Killing index of Upperground parts (chigaya; 0.1%, 21 days) | Killing index (kiichigo; 0.1%, after 3 months) | controlling effect (hornwort; 3 ppm, 21 days)
+++: Reproduction-inhibiting effect (water hyacinth [2]; 0.05%)
2: controlling effect (hornwort; 1 ppm, 21 days)
1: controlling effect (hornwort; 1 ppm, 3 months)
5: controlling effect (hornwort; 3 ppm, 3 months) | controlling effect (hornwort; 10 ppm, 3 months) | controlling effect (hornwort; 10 ppm, 21 days)
-: Reproduction-inhibiting effect (manna grass; 0.2%) | Reproduction-inhibiting effect (yabugarashi; 0.2%) | Reproduction-inhibiting effect (warunasubi; 0.2%) | Reproduction-inhibiting effect (hedge bindweed; 0.2%) | Reproduction-inhibiting effect (chigaya; 0.1%) | Reproduction-inhibiting effect (chigaya; 0.2%) | Reproduction-inhibiting (kiichigo; 0.2%, after 3 months) | Reproduction-inhibiting (Japanese prickly ash; 0.2%, after 3 months) | Reproduction-inhibiting (lace shrub; 0.1%, after 3 months) | Reproduction-inhibiting (lace shrub; 0.2%, after 3 months) | Reproduction-inhibiting effect (water hyacinth [1]; 0.2%) | Reproduction-inhibiting effect (urikawa; 0.2%) | Reproduction-inhibiting effect (water hyacinth [2]; 0.2%)
